Where “and” joins values, the source holds several entries; their conditions need not be identical. Equal values may be shown once.
Key:
α4β2 nicotinic receptor [1] = target: T1, α4β2 nicotinic receptor (Homo sapiens, UniProt P17787+P43681); test: Two-electrode voltage-clamp recording of ACh-induced currents in X. laevis oocytes expressing recombinant α4β2 nicotinic receptor; format: cell-based
T1 construct: expressed in transfected cells; host or cells: Xenopus laevis oocytes (nuclear cDNA injection)
Procedure: (§1) Figure 1 Inhibitory effect of (-)-231C on ACh-induced currents in X. laevis oocytes expressing recombinant nicotinic receptors. Currents were recorded in the voltage-clamp mode at -60 mV. Concentrations of ACh used were 1 μM for the α4β2 receptor and 100 μM for the α7 receptor. For test responses, oocytes were preincubated with (-)-231C for 3 min and then exposed to ACh with (-)-231C. A, representative traces showing the ACh-elicited currents in the absence and presence of (-)-231C (3 μM). Horizontal bars indicate the period of perfusion with ACh for 5 s. Vertical scale bars represent 0.5 μA on the α4β2 receptor, and 0.1 μA on the α7 receptor. B, concentration-response curves for (-)-231C on recombinant nicotinic receptors. Current responses to ACh in the presence of (-)-231C in each oocyte were normalized to the ACh responses (control responses) recorded in the same oocytes. Values represent the mean ± S.E.M. for five to six separate experiments.
as §1, with “Figure 2” for “Figure 1”, “of (-)-221I” for “of (-)-231C”, “with (-)-221I” for “with (-)-231C”, “with (-)-221I.” for “with (-)-231C.”, “for (-)-221I” for “for (-)-231C”, “five” for “five to six”
as §1, with “Figure 3” for “Figure 1”, “of (-)-epi-193E” for “of (-)-231C”, “with (-)-epi-193E” for “with (-)-231C”, “with (-)-epi-193E.” for “with (-)-231C.”, “for (-)-epi-193E” for “for (-)-231C”, “five” for “five to six”
(§2) Xenopus laevis oocytes were prepared as described previously. In brief, stage V-VI oocytes were isolated and microinjected with cDNAs encoding nicotinic receptor subunit into the nucleus. The α7 subunit cDNA was injected alone, whereas the mixture of α4 and β2 subunit cDNAs was injected in a ratio of 1:1. Oocytes were cultured at 19 °C for 3-7 days. An oocyte was placed in a tube-like chamber in which Ringer’s solution (82.5 mM NaCl, 2.5 mM KCl, 2.5 mM CaCl2, 1 mM MgCl2, and 5 mM HEPES, pH 7.4) containing 1 µM atropine was perfused by gravity (15 ml/min). Current responses were recorded under two-electrode voltage-clamp method. To apply a pulse of acetylcholine (ACh) to the oocyte, the perfusion fluid was switched to solution containing ACh, using a three-way Teflon solenoid valve (Parker Hannifin Corp., General Valve Division, Fairfield, NJ) controlled by a PC computer with pClamp7 software (Axon Instruments, Union City, CA). […]

α7 nicotinic receptor = target: T2, α7 nicotinic receptor (Homo sapiens, UniProt P36544); test: Two-electrode voltage-clamp recording of ACh-induced currents in X. laevis oocytes expressing recombinant α7 nicotinic receptor; format: cell-based; conditions: for fold higher potency for blockade of α7 than of α4β2 receptor: ratio of IC50 values, α7 over α4β2
T2 construct: expressed in transfected cells; host or cells: Xenopus laevis oocytes (nuclear cDNA injection)
Procedure: as §1
as §1, with “Figure 2” for “Figure 1”, “of (-)-221I” for “of (-)-231C”, “with (-)-221I” for “with (-)-231C”, “with (-)-221I.” for “with (-)-231C.”, “for (-)-221I” for “for (-)-231C”, “five” for “five to six”
as §1, with “Figure 3” for “Figure 1”, “of (-)-epi-193E” for “of (-)-231C”, “with (-)-epi-193E” for “with (-)-231C”, “with (-)-epi-193E.” for “with (-)-231C.”, “for (-)-epi-193E” for “for (-)-231C”, “five” for “five to six”
as §2

[2] = test system: nicotinic acetylcholine receptors; set-up: method as in PMID 1815137; conditions: cited from earlier work
α4β2 nicotinic receptor [3] = target: T1, α4β2 nicotinic receptor; set-up: method as in PMID 15258256; conditions: cited from earlier work

T1 sequence (P43681 29-627 limits assumed): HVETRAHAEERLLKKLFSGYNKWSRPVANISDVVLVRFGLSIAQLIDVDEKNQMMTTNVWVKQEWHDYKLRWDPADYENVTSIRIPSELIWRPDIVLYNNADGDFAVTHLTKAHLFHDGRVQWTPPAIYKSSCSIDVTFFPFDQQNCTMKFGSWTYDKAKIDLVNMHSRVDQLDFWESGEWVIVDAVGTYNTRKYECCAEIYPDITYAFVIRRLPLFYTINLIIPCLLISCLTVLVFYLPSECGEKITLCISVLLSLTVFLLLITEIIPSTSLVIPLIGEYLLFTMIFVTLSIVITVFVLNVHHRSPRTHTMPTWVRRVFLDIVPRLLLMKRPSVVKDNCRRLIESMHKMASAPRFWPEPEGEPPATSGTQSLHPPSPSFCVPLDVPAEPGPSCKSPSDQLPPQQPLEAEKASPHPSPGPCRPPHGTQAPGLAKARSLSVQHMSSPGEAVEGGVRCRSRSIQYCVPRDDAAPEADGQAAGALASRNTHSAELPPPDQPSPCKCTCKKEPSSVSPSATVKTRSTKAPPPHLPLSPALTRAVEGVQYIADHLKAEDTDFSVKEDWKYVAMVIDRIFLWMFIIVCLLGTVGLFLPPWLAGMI
T1 sequence (P17787 26-502): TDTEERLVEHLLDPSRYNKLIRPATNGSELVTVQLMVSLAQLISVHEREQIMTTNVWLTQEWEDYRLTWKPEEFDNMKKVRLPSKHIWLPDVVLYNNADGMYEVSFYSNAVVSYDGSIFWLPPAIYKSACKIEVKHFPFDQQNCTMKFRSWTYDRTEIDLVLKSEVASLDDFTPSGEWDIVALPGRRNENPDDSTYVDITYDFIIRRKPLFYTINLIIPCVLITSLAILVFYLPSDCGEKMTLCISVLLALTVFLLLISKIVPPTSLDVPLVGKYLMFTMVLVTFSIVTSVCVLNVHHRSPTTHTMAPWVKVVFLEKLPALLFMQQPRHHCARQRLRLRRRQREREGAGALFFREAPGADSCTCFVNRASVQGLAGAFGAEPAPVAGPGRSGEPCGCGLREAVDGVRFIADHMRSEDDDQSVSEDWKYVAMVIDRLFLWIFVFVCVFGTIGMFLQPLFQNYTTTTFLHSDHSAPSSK
T2 sequence (P36544 23-502): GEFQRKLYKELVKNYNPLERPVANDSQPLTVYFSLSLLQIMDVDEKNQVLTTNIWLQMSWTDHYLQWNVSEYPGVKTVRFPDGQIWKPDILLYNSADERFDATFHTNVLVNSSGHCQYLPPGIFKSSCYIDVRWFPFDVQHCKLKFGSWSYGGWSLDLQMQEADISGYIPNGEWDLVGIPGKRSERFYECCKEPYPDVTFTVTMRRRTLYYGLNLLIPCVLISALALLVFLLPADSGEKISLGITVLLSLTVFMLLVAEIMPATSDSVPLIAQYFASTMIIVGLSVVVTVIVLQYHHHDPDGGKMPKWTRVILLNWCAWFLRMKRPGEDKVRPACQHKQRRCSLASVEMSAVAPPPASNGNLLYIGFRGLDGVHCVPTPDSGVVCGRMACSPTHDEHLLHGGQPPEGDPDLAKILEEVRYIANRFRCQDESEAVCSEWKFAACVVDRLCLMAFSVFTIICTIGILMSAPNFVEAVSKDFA

SMILES: CCC=CCC1CCC(CC)C2CCCN12 (single isomer, unassigned; (-)) [(-)-221I]
- IC50 (α4β2 nicotinic receptor [1]): 23.1 µM
- IC50 (α7 nicotinic receptor): 4.4 µM
- fold higher potency for blockade of α7 than of α4β2 receptor (α7 nicotinic receptor): 5.3 fold

SMILES: C=CCC1CCC(CC)C2CCCN12 (single isomer, unassigned; (-)) [(-)-epi-193E]
- IC50 (α4β2 nicotinic receptor [1]): 18 µM
- IC50 (α7 nicotinic receptor): 9.1 µM
- fold higher potency for blockade of α7 than of α4β2 receptor (α7 nicotinic receptor): 2.0 fold

SMILES: CCCCC[C@@H]1CC[C@@H](C)[C@@H]2CCCN12 [(-)-209B, (5S,8R,9S)-(-)-8-Methyl-5-pentyloctahydroindolizine]
- mode of action at nicotinic receptors [2]: noncompetitive nicotinic blockers

SMILES: C#C/C=C\CCC[C@@H]1CC[C@@H](C)[C@@H]2CCCN12 [(-)-231C, (5R,8R,9S)-(-)-5-Hept-4-en-6-ynyl-8-methyloctahydroindolizine]
- IC50 (α4β2 nicotinic receptor [1]): 1.5 µM
- peak amplitude of ACh-elicited currents (α4β2 nicotinic receptor [1]; 3 μM compound, oocytes expressing α4β2 receptor): greatly decreased
- fold higher sensitivity/potency for blockade of α4β2 than of α7 receptor (α4β2 nicotinic receptor [1]; ratio of IC50 values, α4β2 over α7): 7.0 fold and 6- to 7 fold
- IC50 (α7 nicotinic receptor): 10.7 µM
- ACh-elicited responses (α7 nicotinic receptor; 3 μM compound, oocytes expressing α7 receptor): not strongly affected

SMILES: CC/C=C\CCC[C@@H]1CC[C@@H](C)[C@@H]2CCCN12 [(-)-235B", (5R,8R,9S)-(-)-5-Hept-4-enyl-8-methyloctahydroindolizine]
- potency in blocking the α4β2 receptor relative to (-)-231C (α4β2 nicotinic receptor [1]; fold greater than (-)-231C, previous (ref 3) versus present data): approximately 20 fold
- selectivity for blockade of α4β2 over α7 receptor (α4β2 nicotinic receptor [3]; previous data): 6- to 7 fold
- effect at the α4β2 nicotinic receptor (α4β2 nicotinic receptor [3]; several nicotinic receptor subtypes tested): selective and potent blocking effects
- potency at α4β2 receptor compared with dihydro-β-erythroidine (α4β2 nicotinic receptor [3]; versus classical α4β2 competitive antagonist): comparable
- mode of action at nicotinic receptors [2]: noncompetitive nicotinic blockers

— publication PMC2164953, “Flexible synthesis of poison-frog alkaloids of the 5,8-disubstituted indolizidine-class. II: Synthesis of (-)-209B, (-)-231C, (-)-233D, (-)-235B", (-)-221I, and an epimer of 193E and pharmacological effects at neuronal nicotinic acetylcholine receptors” (Beilstein Journal of Organic Chemistry, 2007)
